Measured values taken from EP0551675A1, “Oral hygiene compositions containing antiplaque agents” (UNILEVER N.V., priority 1991, dated 1993).
Converted amounts (≈) assume the structure as drawn.

Tests used:
[1] = Krafft point of a 1% dispersion in water; type: physicochemical; conditions: 1% dispersion of the surfactant in water
Experimental: The temperature at and above which surfactants begin to form micelles instead of precipitates is referred to as Krafft point (Tk) and at this temperature the solubility of a surfactant becomes equal to its CMC.
Krafft point was measured by preparing a 1% dispersion of the surfactant in water. If the surfactant was soluble at room temperature, the solution was cooled to 0°C. […] If it precipitated out, the solution was slowly warmed with stirring in a water bath. The temperature at which the precipitate dissolved was determined to be the Krafft point.
If the Krafft point was above room temperature, the solution was first heated rapidly to dissolve all the surfactant. It was then cooled until precipitation occurred, and was then slowly warmed to determine the Krafft point described above.

[2] = Foam height, Ross-Miles method; type: physicochemical; conditions: 45°C, water with 120 ppm hardness
Experimental: Since most of the foaming data on surfactants is typically obtained by the Ross-Miles method (Ross, J. and Miles, G.D., am. Soc. for Testing Material Method D1173-53 Philadelphia, PA. (1953); Oil & Soap (1958) 62:1260) the foaming ability of these surfactants was also acquired using this method.
In the Ross-Miles method, 200 mL of a solution of surfactant contained in a pipette of specified dimensions with a 2.9-mm-i.d. orifice is allowed to fall 90 cm onto 50 mL of the same solution contained in a cylindrical vessel maintained at a given temperature (often 60°C) by means of a water jacket. The height of the foam produced in the cylindrical vessel is read immediately after all the solution has run out of the pipette (initial foam height) and then again after a given amount of time (generally, 5 min).
Using this method, the foam production (measured initially) and foam stability (the height after 10 minutes) are reported. […] The foam height is represented in millimeters (mm).

Streptococcus sobrinus = assay: Antimicrobial activity determination (MIC); type: cell-based; conditions: BHI broth, aerobic, 37 degrees C, read-out: Minimimum Inhibitory Concentrations
Experimental: (§1) The antimicrobial activity of the targeted agents was assessed by determining the minimum inhibitory concentration (MIC). Pure cultures of various strains of oral bacterial species as indicated in Table 3 were combined with serial dilutions of the targeted agents in beef heart infusion broth (BHI); starting bacterial concentrations were approximately 1.0 x 10E6 colony forming units (CFU) per ml. The mixtures were incubated aerobically at 37 degrees C and the optical density (540 nm, path length 1cm) of the cultures was measured at 0.0, 24.0 and 48.0 hr using Bausch and Lomb Spec 20 variable wavelength spectrophotometer.

Actinomyces naeslundii = assay: Antimicrobial activity determination (MIC); type: cell-based; conditions: BHI broth, aerobic, 37 degrees C, read-out: Minimimum Inhibitory Concentrations
Experimental: as §1

Streptococcus sanguis = assay: Antimicrobial activity determination (MIC); type: cell-based; conditions: Streptococcus, Streptococcus sanguis; BHI broth, aerobic, 37 degrees C; read-out: Minimimum Inhibitory Concentrations
Experimental: as §1

Veillonella dispar = assay: Antimicrobial activity determination (MIC); type: cell-based; conditions: BHI broth, aerobic, 37 degrees C, read-out: Minimimum Inhibitory Concentrations
Experimental: as §1

Prevotella intermedius = assay: Antimicrobial activity determination (MIC); type: cell-based; conditions: Prevotella intermedius; BHI broth, aerobic, 37 degrees C; read-out: Minimimum Inhibitory Concentrations
Experimental: as §1

Neisseria subflava = assay: Antimicrobial activity determination (MIC); type: cell-based; conditions: BHI broth, aerobic, 37 degrees C, read-out: Minimimum Inhibitory Concentrations
Experimental: as §1

Candida albicans = assay: Antimicrobial activity determination (MIC); type: cell-based; conditions: BHI broth, aerobic, 37 degrees C, read-out: Minimimum Inhibitory Concentrations
Experimental: as §1

Porphyromonas gingivalis = assay: Antimicrobial activity determination (MIC); type: cell-based; conditions: BHI broth, aerobic, 37 degrees C, read-out: Minimimum Inhibitory Concentrations
Experimental: as §1

Krafft Point [1]: 38 °C | Initial Height ([2]; foam production, measured initially): 160 mm | After 10 Minutes ([2]; foam stability, height after 10 minutes): 6 mm | MIC (Streptococcus sobrinus): 125 µg/mL (≈ 238 µM) | MIC (Actinomyces naeslundii): 60 µg/mL (≈ 114 µM) | MIC (Streptococcus sanguis): 125 µg/mL (≈ 238 µM) | MIC (Veillonella dispar): 60 µg/mL (≈ 114 µM) | MIC (Prevotella intermedius): 250 µg/mL (≈ 476 µM) | MIC (Neisseria subflava): 250 µg/mL (≈ 476 µM) | MIC (Candida albicans): 125 µg/mL (≈ 238 µM) | MIC (Porphyromonas gingivalis): 30 µg/mL (≈ 57.1 µM)
Compound: CCCCCCCCCCCCNC(=O)[C@H](O)[C@@H](O)[C@H](O[C@@H]1O[C@H](CO)[C@H](O)[C@H](O)[C@H]1O)[C@H](O)CO [Dodecyl lactobionamide, N-dodecyl lactobionamide]
